19 molecules from PMC12631574, “Structure–activity relationships of hydrophobic small molecule irreversible inhibitors of tissue transglutaminase” (RSC Medicinal Chemistry, 2025) can be followed below.

In this experiment the target is T1, tissue transglutaminase (TG2), C-terminal His-tag TG2 (Homo sapiens, UniProt P21980).
T1 construct: host or cells: Novagen Rosetta 2 (DE3) E. coli
T1 sequence (P21980 1-687): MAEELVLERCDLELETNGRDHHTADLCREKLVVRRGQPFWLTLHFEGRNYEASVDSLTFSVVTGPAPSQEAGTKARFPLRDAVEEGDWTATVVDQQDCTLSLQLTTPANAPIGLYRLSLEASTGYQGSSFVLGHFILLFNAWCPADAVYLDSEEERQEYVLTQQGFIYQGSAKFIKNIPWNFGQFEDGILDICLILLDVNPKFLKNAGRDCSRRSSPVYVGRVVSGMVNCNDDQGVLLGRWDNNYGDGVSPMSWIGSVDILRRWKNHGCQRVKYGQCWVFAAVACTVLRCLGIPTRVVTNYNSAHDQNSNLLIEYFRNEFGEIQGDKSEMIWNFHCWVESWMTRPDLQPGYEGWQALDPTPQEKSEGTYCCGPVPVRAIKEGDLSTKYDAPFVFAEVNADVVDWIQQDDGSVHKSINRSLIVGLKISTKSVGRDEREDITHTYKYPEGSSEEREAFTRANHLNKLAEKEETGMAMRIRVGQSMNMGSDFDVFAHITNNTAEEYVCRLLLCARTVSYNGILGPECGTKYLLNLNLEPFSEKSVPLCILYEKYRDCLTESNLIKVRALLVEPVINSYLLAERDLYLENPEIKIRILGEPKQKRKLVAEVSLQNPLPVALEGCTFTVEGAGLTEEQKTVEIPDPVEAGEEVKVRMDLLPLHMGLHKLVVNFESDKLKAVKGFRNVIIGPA
Kind of experiment: continuous AL5 hydrolysis assay of irreversible TG2 inhibition (kobs vs [I]/α). It is filed as biochemical.

The mark [1] stands for this setting: irreversible inhibition, AL5 100 μM, pH 6.9, 25 °C, triplicate.
Setting [2] is: supplement, kinetics data and fitting.

For `C=CC(=O)NCC(=O)N1CCN(C(=O)C2CC2)CC1` [Compound 6a, N-2-[4-[(Cyclopropanecarbonyl)-1-piperazinyl]-2-oxoethyl]propenamide], the kinact is 0.00593 s⁻¹. Besides, the KI (inactivation) under setting [1] is 23.5 ± 6.5 µM. Besides, under setting [2], the KI (inactivation) came out at 23.5 ± 6.5 µM and the kinact/KI is listed as 15.2 ± 4.6 × 103 M-1min-1.

With `C=CC(=O)NCC(=O)N1CCN(C(=O)C2CCC2)CC1` [Compound 6b, N-2-[4-[(Cyclobutanecarbonyl)-1-piperazinyl]-2-oxoethyl]propenamide], the maximal inactivation rate constant (kinact) was 0.00842 s⁻¹. This molecule returned a KI (inactivation) under setting [1] of 20.2 ± 3.5 µM. Moreover, under setting [2], the KI (inactivation) was found to be 20.2 ± 3.5 µM and the kinact/KI was 25.0 ± 4.7 × 103 M-1min-1.

As to `C=CC(=O)NCC(=O)N1CCN(C(=O)C2CCCC2)CC1` [Compound 6c, N-2-[4-[(Cyclopentanecarbonyl)-1-piperazinyl]-2-oxoethyl]propenamide], the kinact is 0.00868 s⁻¹. The molecule further yielded a KI (inactivation) under setting [1] of 13 ± 1.6 µM. Besides, under setting [2], the KI (inactivation) was 13 ± 1.6 µM and the kinact/KI was 40.0 ± 5.3 × 103 M-1min-1.

For the molecule `C=CC(=O)NCC(=O)N1CCN(C(=O)C2CCCCC2)CC1` [Compound 6d, N-2-[4-[(Cyclohexanecarbonyl)-1-piperazinyl]-2-oxoethyl]propenamide], the kinact was 0.0177 s⁻¹. Under setting [1], this molecule had a KI (inactivation) of 7.1 ± 1.3 µM. In addition, under setting [2], the KI (inactivation) was determined as 7.14 ± 1.34 µM and the kinact/KI is 149 ± 31 × 103 M-1min-1.

In the case of `C=CC(=O)NCC(=O)N1CCN(C(=O)C2CCCCCC2)CC1` [Compound 6e, N-2-[4-[(Cycloheptanecarbonyl)-1-piperazinyl]-2-oxoethyl]propenamide], the kinact was 0.0099 s⁻¹. The KI (inactivation) under setting [1] worked out at 21.5 ± 11 µM. Further, under setting [2], the KI (inactivation) stood at 21.5 ± 11 µM and the kinact/KI was 27.6 ± 16.1 × 103 M-1min-1.

For `C=CC(=O)NCC(=O)N1CCN(C(=O)c2ccccc2)CC1` [Compound 6f, N-2-[4-[(Benzoyl)-1-piperazinyl]-2-oxoethyl]propenamide], the kinact was 0.00827 s⁻¹. The KI (inactivation) under setting [1] is 8.1 ± 2.5 µM. Under setting [2], the KI (inactivation) was 8.12 ± 2.47 µM and the kinact/KI was 61.1 ± 20.0 × 103 M-1min-1.

Consider `C=CC(=O)NCC(=O)N1CCN(C(=O)c2ccccc2-c2ccccc2)CC1` [Compound 7a, N-2-[4-[((2-Biphenyl)carbonyl)-1-piperazinyl]-2-oxoethyl]propenamide], for which the kinact was 0.00958 s⁻¹. The molecule also had a KI (inactivation) under setting [1] of 3.2 ± 1 µM. In addition, under setting [2], the KI (inactivation) was 3.23 ± 1.14 µM and the kinact/KI is given as 178.0 ± 68.6 × 103 M-1min-1.

As for `C=CC(=O)NCC(=O)N1CCN(C(=O)c2cccc(-c3ccccc3)c2)CC1` [Compound 7b, N-2-[4-[((3-Biphenyl)carbonyl)-1-piperazinyl]-2-oxoethyl]propenamide], the kinact is 0.0118 s⁻¹. The same molecule displayed a KI (inactivation) under setting [1] of 5.3 ± 1.4 µM. For the same molecule, under setting [2], the KI (inactivation) was found to be 5.29 ± 1.39 µM and the kinact/KI is given as 133.9 ± 38.4 × 103 M-1min-1.

`C=CC(=O)NCC(=O)N1CCN(C(=O)c2ccc(-c3ccccc3)cc2)CC1` [Compound 7c, N-2-[4-[((4-Biphenyl)carbonyl)-1-piperazinyl]-2-oxoethyl]propenamide]: the kinact is 0.0118 s⁻¹. The molecule also registered a KI (inactivation) under setting [1] of 41.1 ± 32.2 µM. Further, under setting [2], the KI (inactivation) worked out at 41.1 ± 32.3 µM and the kinact/KI is 17.2 ± 15.5 × 103 M-1min-1.

Turning to `C=CC(=O)NCC(=O)N1CCN(C(=O)c2ccccc2-c2ccccc2C)CC1` [Compound 21a, N-2-[4-[((2′-Methyl-2-biphenyl)carbonyl)-1-piperazinyl]-2-oxoethyl]propenamide], the kinact was 0.00955 s⁻¹. In addition, the KI (inactivation) under setting [1] came to 4.8 ± 1 µM. Moreover, under setting [2], the KI (inactivation) came out at 4.85 ± 1.02 µM and the kinact/KI was 118 ± 27 × 103 M-1min-1.

As to `C=CC(=O)NCC(=O)N1CCN(C(=O)c2ccccc2-c2cccc(C)c2)CC1` [Compound 21b, N-2-[4-[((3′-Methyl-2-biphenyl)carbonyl)-1-piperazinyl]-2-oxoethyl]propenamide], the kinact was 0.00902 s⁻¹. Under setting [1], this molecule returned a KI (inactivation) of 2.6 ± 0.7 µM. Under setting [2], the KI (inactivation) amounted to 2.64 ± 0.72 µM and the kinact/KI is 205 ± 60 × 103 M-1min-1.

For the molecule `C=CC(=O)NCC(=O)N1CCN(C(=O)c2ccccc2-c2ccc(C)cc2)CC1` [Compound 21c, N-2-[4-[((4′-Methyl-2-biphenyl)carbonyl)-1-piperazinyl]-2-oxoethyl]propenamide], the kinact was 0.00807 s⁻¹. This molecule also had a KI (inactivation) under setting [1] of 8.3 ± 2.1 µM. For the same molecule, under setting [2], the KI (inactivation) worked out at 8.28 ± 2.08 µM and the kinact/KI is reported as 58.5 ± 16.2 × 103 M-1min-1.

For the molecule `C=CC(=O)NCC(=O)N1CCN(C(=O)c2cccc(-c3ccccc3C)c2)CC1` [Compound 21d, N-2-[4-[((2′-Methyl-3-biphenyl)carbonyl)-1-piperazinyl]-2-oxoethyl]propenamide], the kinact was 0.012 s⁻¹. Under setting [1], the KI (inactivation) turned out to be 1.1 ± 0.1 µM. For the same molecule, under setting [2], the KI (inactivation) turned out to be 1.13 ± 0.099 µM and the kinact/KI is 636 ± 58 × 103 M-1min-1.

With `C=CC(=O)NCC(=O)N1CCN(C(=O)c2cccc(-c3cccc(C)c3)c2)CC1` [Compound 21e, N-2-[4-[((3′-Methyl-3-biphenyl)carbonyl)-1-piperazinyl]-2-oxoethyl]propenamide], the kinact is 0.0104 s⁻¹. Besides, the KI (inactivation) under setting [1] stood at 4.4 ± 2.8 µM. In addition, under setting [2], the KI (inactivation) was found to be 4.42 ± 2.83 µM and the kinact/KI was 141 ± 98 × 103 M-1min-1.

For `C=CC(=O)NCC(=O)N1CCN(C(=O)c2cccc(-c3ccc(C)cc3)c2)CC1` [Compound 21f, N-2-[4-[((4′-Methyl-3-biphenyl)carbonyl)-1-piperazinyl]-2-oxoethyl]propenamide], the kinact was 0.0092 s⁻¹. The molecule further registered a KI (inactivation) under setting [1] of 2.3 ± 0.6 µM. Further, under setting [2], the KI (inactivation) came out at 2.29 ± 0.66 µM and the kinact/KI is 241 ± 74 × 103 M-1min-1.

In the case of `C=CC(=O)NCC(=O)N1CCN(C(=O)c2ccc(-c3ccccc3C)cc2)CC1` [Compound 21g, N-2-[4-[((2′-Methyl-4-biphenyl)carbonyl)-1-piperazinyl]-2-oxoethyl]propenamide], the kinact is 0.0217 s⁻¹. The same molecule gave a KI (inactivation) under setting [1] of 54.1 ± 14.6 µM. Also, under setting [2], the KI (inactivation) worked out at 54.1 ± 14.6 µM and the kinact/KI is reported as 24.1 ± 7.3 × 103 M-1min-1.

For the molecule `C=CC(=O)NCC(=O)N1CCN(C(=O)c2ccc(-c3cccc(C)c3)cc2)CC1` [Compound 21h, N-2-[4-[((3′-Methyl-4-biphenyl)carbonyl)-1-piperazinyl]-2-oxoethyl]propenamide], the kinact was 0.0148 s⁻¹. Further, the KI (inactivation) under setting [1] is 38.9 ± 17.7 µM. Also, under setting [2], the KI (inactivation) is 38.9 ± 17.7 µM and the kinact/KI is reported as 22.8 ± 11.7 × 103 M-1min-1.

Take `C=CC(=O)NCC(=O)N1CCN(C(=O)c2ccccc2Cc2ccccc2)CC1` [Compound 22a, N-2-[4-[((2-Benzylphenyl)carbonyl)-1-piperazinyl]-2-oxoethyl]propenamide]: the kinact is 0.0146 s⁻¹. Besides, the KI (inactivation) under setting [1] was determined as 14.2 ± 3.3 µM. Under setting [2], the KI (inactivation) was 14.2 ± 3.3 µM and the kinact/KI was 61.3 ± 15.9 × 103 M-1min-1.

As for `C=CC(=O)NCC(=O)N1CCN(C(=O)c2ccccc2Oc2ccccc2)CC1` [Compound 22b, N-2-[4-[((2-Phenoxyphenyl)carbonyl)-1-piperazinyl]-2-oxoethyl]propenamide], the kinact is 0.0143 s⁻¹. This molecule had a KI (inactivation) under setting [1] of 9.1 ± 0.8 µM. Under setting [2], the KI (inactivation) amounted to 9.06 ± 0.8 µM and the kinact/KI is reported as 94.8 ± 9.0 × 103 M-1min-1.

As usually defined, the kinact is the maximal first-order rate at which the target is inactivated.
